The values below are quoted from earlier work in US9034798B2, “Capture compounds, collections thereof and methods for analyzing the proteome and complex compositions” (CAPROTEC BIOANALYTICS GMBH, priority 2003, dated 2015).

For this data set the following is noted: for drug-induced hepatotoxicity: clinical studies; for heart failure: six male patients with poor heart and kidney function; for deaths: reported before withdrawal from the market.

The structures appear in SMILES notation.

As for `CCc1ccc(CCOc2ccc(CC3SC(=O)NC3=O)cc2)nc1` (stereo not drawn) [Actos, Pioglitazone], the drug-induced hepatotoxicity result is “no evidence of drug-induced hepatotoxicity” and the heart failure result is “caused heart failure”.

Regarding `CN(CCOc1ccc(CC2SC(=O)NC2=O)cc1)c1ccccn1` (stereo not drawn) [Avandia, Rosiglitazone], the drug-induced hepatotoxicity entry is “no evidence of drug-induced hepatotoxicity” and the heart failure result is on record as “caused heart failure”.

`COCc1c(C(C)C)nc(C(C)C)c(/C=C/[C@@H](O)C[C@@H](O)CC(=O)O)c1-c1ccc(F)cc1` [Baycol, cerivastatin sodium]: the deaths is 31 deaths.

As to `Cc1c(C)c2c(c(C)c1O)CCC(C)(COc1ccc(CC3SC(=O)NC3=O)cc1)O2` (stereo not drawn) [Rezulin, Troglitazone], the deaths is 398 deaths.
